In publication PMC9589286, “Ruthenium polypyridine complexes with triphenylamine groups as antibacterial agents against Staphylococcus aureus with membrane-disruptive mechanism” (Frontiers in Chemistry, 2022):

How the values were obtained:
Staphylococcus aureus [1] = experiment: Nucleic acid leakage, 260 nm absorbing material; type: cell-based; conditions: 4 μg/ml, 2 h
Experimental: To verify the membrane damage, the loss of 260 nm absorbing material was carried out ([Yu et al., 2021]). Briefly, overnight cultured bacteria were diluted 1:1000 in fresh TSB and shaken at 37°C for about 5 h until the exponential stage was reached. The supernatant was removed by centrifugation, then the bacteria were resuspended to OD600 = 1 with PBS, which was further treated with Ru-3 or polymyxin B and centrifuged after 2 h to precipitate bacterial cells. Subsequently, the loss of 260 nm absorbing material, including the release of DNA and RNA in the filtrate, was measured at 260 nm.

Galleria mellonella = experiment: Toxicity in insect model Galleria mellonella; type: in vivo; conditions: 64 mg kg^−1, larvae, 120 h
Experimental: Based on the excellent antibacterial effect of Ru-3 in vitro, its biosafety was further evaluated. Firstly, the hemolytic activity of ruthenium complexes on rabbit red blood cells was measured to study their toxicity. […] In view of its good compatibility with mammalian red blood cells, the toxicity of Ru-3 to eukaryotes was also studied. Herein, Ru-3 was tested with Gallery melonella larvae. […] When the concentration of Ru-3 was 64 mg kg^−1, the survival rate was still 75%.
FIGURE 15 Test results of Ru compounds toxicity (A) % hemolysis at 256 μg ml^−1 of Ru compounds. (B) Kaplan-Meier survival curves. […] The larvae were incubated at 37.5°C and live/dead scores were conducted at 120 h (C) H&E staining images of the infected tissues with different treatments.

Staphylococcus aureus [2] = experiment: Drug resistance study, 20 generations at sub inhibitory concentration; type: cell-based
Experimental: After Staphylococcus aureus was cultured for 5 h, the bacteria were diluted 1000 times with fresh TSB and the MIC of Ru-3 was measured. The bacterial solution grown at the sub inhibitory concentration of compound Ru-3 was inoculated into fresh TSB medium for 5 h, then the MIC was measured, and the above procedure was repeated for 20 generations. Ampicillin was used as the control.

BALB/c mice = experiment: Acute skin irritation test, H&E; type: in vivo; conditions: 0.05 and 0.1 mg ml^−1, once a day for 3 days, topical
Experimental: Female BALB/c mice were randomly divided into three groups, control group, Ru-3 (0.05 mg ml^−1) group and Ru-3 (0.1 mg ml^−1). The day before the experiment, the hair on the back of female mice was removed. The compound and distilled water control were gently attached to the shaving site (about 2 cm^2) once a day for 3 days. On the fourth day, the mice were killed by cervical dislocation. The skin tissue at the site of infections were taken out and fixed in 4% paraformaldehyde at 4°C for 1 day, then embedded in paraffin. Serial sections were prepared for H&E analysis.

[3] = test system: Staphylococcus aureus in biofilm; experiment: Killing bacteria in established biofilm; type: cell-based; conditions: 32 μg ml^−1; initial 8.62
Experimental: To establish bacterial biofilm, the overnight cultured Staphylococcus aureus strain was diluted 1000 times with fresh TSB medium, then the bacterial suspension was transferred to 96 well plate and cultured for 24 h. Subsequently, the supernatant was removed and the formed biofilm was washed 3 times with PBS solution. 200 μL solution containing Ru-3 of different concentrations (512, 256, 128, 64, 32, 16, 8, 4 μg ml^−1) were added and further incubated at 37°C for 24 h. Biofilm without Ru-3 were used as positive controls. Then the supernatant was discarded and the residual biofilm was cleaned using 200 μL PBS 3 times. Next, fresh medium was added to culture for 24 h ([Yang et al., 2021]). The solution after culture was diluted 1000 times and 100 μL was taken out for plate coating and counting.

## [Ru(dmb)2PMA] (PF6)2 [Ru-3]
Staphylococcus aureus [1]
  Δ% Nucleic acid leakage: 20%
Galleria mellonella
  survival rate: 75%
Staphylococcus aureus [2]; 20 passages at sublethal concentration
  increase of MIC value after 20 generations: four
Staphylococcus aureus [2]; ampicillin, polymyxin B, tetracycline, clindamycin resistant S. aureus obtained after 20 generations
  MIC values against antibiotic resistant S. aureus: almost the same as the wild type
BALB/c mice
  skin irritation, H&E pathological changes: no obvious pathological abnormalities
[3]
  number of the survival Staphylococcus aureus in the biofilm: 0 log10 colony-forming units per milliliter (CFU/ml)
